Results taken from ChEMBL document CHEMBL1201862, “PubChem BioAssay data set” (2004).
The source made the active and inactive calls.

Key:
Mucolipin-3 = Mucolipin-3 (Homo sapiens, UniProt Q8TDD5); assay: Fluorescence counterscreen assay for […] agonists: dose response cell-based high-throughput screening assay to identify agonists of the transient receptor potential channel ML3 (TRPML3). [Related pubchem assays: 1424, 1448 ]; type: functional
Ion channel NompC = Ion channel NompC (Danio rerio, UniProt Q7T1G6); assay: Dose response cell-based high-throughput screening assay for agonists of the transient receptor potential channel N1 (TRPN1). [Related pubchem assays (depositor defined):AID1424, AID1448]; type: functional
Coagulation factor XII = molecular target: T1, Coagulation factor XII (Homo sapiens, UniProt P00748); assay: Factor XIIa Dose Response Confirmation from Single Well HTS. [Related pubchem assays (depositor defined):AID701]; type: functional
T1 sequence (P00748 whole entry): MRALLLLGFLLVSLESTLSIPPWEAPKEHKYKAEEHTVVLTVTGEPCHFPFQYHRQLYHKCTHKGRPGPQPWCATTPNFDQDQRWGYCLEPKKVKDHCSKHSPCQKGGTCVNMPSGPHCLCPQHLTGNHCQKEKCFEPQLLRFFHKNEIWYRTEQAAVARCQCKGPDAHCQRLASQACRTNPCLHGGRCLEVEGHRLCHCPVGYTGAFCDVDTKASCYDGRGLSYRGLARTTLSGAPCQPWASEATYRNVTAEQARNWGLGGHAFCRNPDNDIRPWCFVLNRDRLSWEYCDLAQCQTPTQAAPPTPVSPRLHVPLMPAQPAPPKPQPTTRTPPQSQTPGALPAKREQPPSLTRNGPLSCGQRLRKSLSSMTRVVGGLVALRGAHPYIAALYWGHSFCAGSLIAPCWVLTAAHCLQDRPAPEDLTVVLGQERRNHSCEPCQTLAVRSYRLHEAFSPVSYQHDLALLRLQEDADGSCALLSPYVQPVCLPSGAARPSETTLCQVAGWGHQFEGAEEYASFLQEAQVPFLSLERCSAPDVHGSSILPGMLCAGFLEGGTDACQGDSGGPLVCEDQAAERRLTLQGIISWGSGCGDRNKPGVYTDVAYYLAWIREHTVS

Cannabinoid receptor 2 [1] = molecular target: T2, Cannabinoid receptor 2 (Homo sapiens, UniProt P34972); assay: SAR analysis of antagonists of the Cannabinoid Receptor 2 using an Image-Based Assay - Set 2. [Related pubchem assays (depositor defined):AID1961, AID1965]; type: functional
T2 sequence (P34972 whole entry): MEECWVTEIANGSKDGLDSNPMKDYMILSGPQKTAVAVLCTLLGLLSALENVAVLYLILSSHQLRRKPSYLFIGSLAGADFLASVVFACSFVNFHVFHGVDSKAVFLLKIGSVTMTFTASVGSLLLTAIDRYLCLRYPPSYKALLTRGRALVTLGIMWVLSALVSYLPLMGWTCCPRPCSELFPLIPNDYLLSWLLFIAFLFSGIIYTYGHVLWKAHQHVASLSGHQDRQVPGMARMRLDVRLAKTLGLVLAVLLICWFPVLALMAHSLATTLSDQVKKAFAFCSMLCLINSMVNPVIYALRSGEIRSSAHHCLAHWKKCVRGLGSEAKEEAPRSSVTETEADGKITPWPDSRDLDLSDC

Cannabinoid receptor 1 [2] = molecular target: T3, Cannabinoid receptor 1 (Homo sapiens, UniProt P21554); assay: SAR analysis of antagonists of the Cannabinoid Receptor 1 using an Image-Based Assay - Set 3. [Related pubchem assays (depositor defined):AID1961, AID1965]; type: functional
T3 sequence (P21554 whole entry): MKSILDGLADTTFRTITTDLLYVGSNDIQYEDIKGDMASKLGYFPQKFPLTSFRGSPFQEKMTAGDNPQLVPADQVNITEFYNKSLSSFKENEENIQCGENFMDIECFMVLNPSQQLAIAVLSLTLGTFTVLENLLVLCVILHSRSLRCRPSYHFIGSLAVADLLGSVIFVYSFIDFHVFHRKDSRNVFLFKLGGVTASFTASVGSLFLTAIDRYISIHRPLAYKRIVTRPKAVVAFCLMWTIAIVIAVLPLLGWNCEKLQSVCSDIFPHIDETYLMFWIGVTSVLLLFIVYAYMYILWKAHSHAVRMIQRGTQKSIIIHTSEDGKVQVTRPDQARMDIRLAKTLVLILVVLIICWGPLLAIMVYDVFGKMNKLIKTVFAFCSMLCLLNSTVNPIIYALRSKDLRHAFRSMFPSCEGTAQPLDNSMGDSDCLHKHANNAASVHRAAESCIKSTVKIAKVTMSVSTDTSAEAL

[3] = molecular target: G-protein coupled receptor 55 (Homo sapiens, UniProt Q9Y2T6); assay: SAR analysis of selective Agonists of GPR55 using an Image-Based Assay - Set 2. [Related pubchem assays (depositor defined):AID1961, AID1965]; type: functional
Cannabinoid receptor 1 [4] = molecular target: T3, Cannabinoid receptor 1; assay: SAR analysis of agonists of the Cannabinoid Receptor 1 using an Image-Based Assay - Set 3. [Related pubchem assays (depositor defined):AID1961, AID1965]; type: functional
[5] = molecular target: T4, G-protein coupled receptor 35 (Homo sapiens, UniProt Q9HC97); assay: SAR analysis of Antagonists of the GPR35 Receptor using an Image-Based Assay - Set 4. [Related pubchem assays (depositor defined):[…]]; type: functional
T4 sequence (Q9HC97 whole entry): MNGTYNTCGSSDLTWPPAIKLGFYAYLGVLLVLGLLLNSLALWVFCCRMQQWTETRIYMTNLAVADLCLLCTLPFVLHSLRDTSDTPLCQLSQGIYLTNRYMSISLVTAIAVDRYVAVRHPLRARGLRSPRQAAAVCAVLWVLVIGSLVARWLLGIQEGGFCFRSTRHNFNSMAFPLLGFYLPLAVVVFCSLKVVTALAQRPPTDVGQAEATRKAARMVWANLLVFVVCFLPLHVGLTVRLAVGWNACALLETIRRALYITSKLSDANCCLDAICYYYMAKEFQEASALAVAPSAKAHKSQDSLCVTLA

[6] = molecular target: T4, G-protein coupled receptor 35; assay: SAR analysis of Agonists of the GPR35 Receptor using an Image-Based Assay - Set 3. [Related pubchem assays (depositor defined):AID1961, AID1965]; type: functional
Cannabinoid receptor 2 [7] = molecular target: T2, Cannabinoid receptor 2; assay: SAR analysis of agonists of the Cannabinoid Receptor 2 using an Image-Based Assay - Set 2. [Related pubchem assays (depositor defined):AID1961, AID1965]; type: functional
[8] = molecular target: T5, Short transient receptor potential channel 4 (Mus musculus, UniProt Q9QUQ5); assay: mouse TRPC4 channel activators, dose response, cell-based, HEK293 TRPC4/mu-opioid, Fluo-4 calcium (AID 434937); type: functional
T5 sequence (Q9QUQ5 whole entry): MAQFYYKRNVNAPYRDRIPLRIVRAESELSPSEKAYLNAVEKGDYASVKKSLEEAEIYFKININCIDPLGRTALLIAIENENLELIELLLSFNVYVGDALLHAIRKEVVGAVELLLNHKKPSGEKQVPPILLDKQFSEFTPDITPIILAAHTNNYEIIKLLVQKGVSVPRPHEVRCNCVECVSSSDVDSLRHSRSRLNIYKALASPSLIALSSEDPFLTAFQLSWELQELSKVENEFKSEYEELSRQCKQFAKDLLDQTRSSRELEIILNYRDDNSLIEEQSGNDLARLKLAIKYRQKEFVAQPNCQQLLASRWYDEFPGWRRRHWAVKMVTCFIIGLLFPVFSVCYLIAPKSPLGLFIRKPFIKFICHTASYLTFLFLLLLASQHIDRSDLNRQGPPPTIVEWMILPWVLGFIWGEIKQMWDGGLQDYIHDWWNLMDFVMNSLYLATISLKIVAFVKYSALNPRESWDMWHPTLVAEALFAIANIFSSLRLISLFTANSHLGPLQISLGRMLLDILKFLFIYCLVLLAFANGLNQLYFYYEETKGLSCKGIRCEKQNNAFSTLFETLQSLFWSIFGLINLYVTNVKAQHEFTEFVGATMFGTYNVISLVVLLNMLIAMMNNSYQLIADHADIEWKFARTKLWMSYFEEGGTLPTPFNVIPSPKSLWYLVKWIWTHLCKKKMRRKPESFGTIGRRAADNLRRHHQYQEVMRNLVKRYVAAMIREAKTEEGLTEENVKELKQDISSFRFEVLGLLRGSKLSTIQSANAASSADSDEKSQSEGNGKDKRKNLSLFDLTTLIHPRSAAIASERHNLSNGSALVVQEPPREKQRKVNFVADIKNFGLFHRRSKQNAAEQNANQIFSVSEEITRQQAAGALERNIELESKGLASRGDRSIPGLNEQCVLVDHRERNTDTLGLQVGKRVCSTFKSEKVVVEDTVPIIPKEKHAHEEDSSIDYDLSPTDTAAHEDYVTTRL

[9] = HEp-2 cell cytotoxicity, dose response, cytotoxicity control for RSV inhibitor project, HTS (AID 2410); type: functional; conditions: human respiratory syncytial virus
[10] = molecular target: T6, Type-1 angiotensin II receptor (Homo sapiens, UniProt P30556); assay: AT1 receptor agonists, dose response, selectivity assay for APJ receptor agonist project, cell-based, uHTS hits (AID 488865); type: functional;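 further: beta-arrestin recruitment to AT1 measured by enzyme fragment complementation luminescence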
T6 sequence (P30556 whole entry): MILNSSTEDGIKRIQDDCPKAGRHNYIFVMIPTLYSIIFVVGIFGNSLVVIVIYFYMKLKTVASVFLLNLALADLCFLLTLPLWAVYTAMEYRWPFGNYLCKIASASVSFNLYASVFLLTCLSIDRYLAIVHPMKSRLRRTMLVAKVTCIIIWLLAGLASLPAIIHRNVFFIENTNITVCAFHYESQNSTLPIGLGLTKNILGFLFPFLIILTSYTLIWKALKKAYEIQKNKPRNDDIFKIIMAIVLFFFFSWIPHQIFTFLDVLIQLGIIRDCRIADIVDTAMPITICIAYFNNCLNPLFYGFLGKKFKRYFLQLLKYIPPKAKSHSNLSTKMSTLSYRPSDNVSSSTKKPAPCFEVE

[11] = molecular target: T7, Ubiquitin-conjugating enzyme E2 N (Homo sapiens, UniProt P61088); type: functional;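 further: Dose-response confirmation in a TR-FRET assay detecting UBC13-driven polyubiquitin chain formation, inhibition measured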
T7 sequence (P61088 whole entry): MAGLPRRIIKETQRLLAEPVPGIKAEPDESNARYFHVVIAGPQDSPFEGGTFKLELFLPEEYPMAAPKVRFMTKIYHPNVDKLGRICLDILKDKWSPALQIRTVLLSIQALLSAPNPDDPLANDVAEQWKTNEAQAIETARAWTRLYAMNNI

[12] = molecular target: 5-hydroxytryptamine receptor 5A (Homo sapiens, UniProt P47898); assay: Counterscreen for agonists of OPRM1-OPRD1 heterodimerization: luminescence-based cell-based high throughput dose response assay to identify agonists of 5-hydroxytryptamine (serotonin) 5A receptor (HTR5A). [Related pubchem assays (depositor defined):AID504326, AID504355, AID504692, AID504904, AID504905]; type: functional
5-hydroxytryptamine receptor 5A, sequence (P47898 whole entry): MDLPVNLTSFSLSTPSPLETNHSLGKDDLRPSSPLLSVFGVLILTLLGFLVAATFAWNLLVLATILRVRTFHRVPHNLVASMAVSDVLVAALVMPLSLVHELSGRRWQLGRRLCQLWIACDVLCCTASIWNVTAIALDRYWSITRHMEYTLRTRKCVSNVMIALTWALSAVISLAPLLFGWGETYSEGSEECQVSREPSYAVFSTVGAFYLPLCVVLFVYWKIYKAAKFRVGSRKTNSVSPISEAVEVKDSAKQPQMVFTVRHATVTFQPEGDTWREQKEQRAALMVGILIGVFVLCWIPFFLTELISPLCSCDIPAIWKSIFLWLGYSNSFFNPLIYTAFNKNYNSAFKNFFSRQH

[13] = molecular target: Delta-type opioid receptor (Homo sapiens, UniProt P41143); assay: Counterscreen for agonists of heterodimerization of the mu 1 (OPRM1) and delta 1 (OPRD1) opioid receptors: Luminescence-based cell-based high throughput dose response assay to identify agonists of OPRD1 homodimerization. [Related pubchem assays (depositor defined):AID504326, AID504355, AID504692, AID504904, AID504905]; type: functional
Delta-type opioid receptor, sequence (P41143 whole entry): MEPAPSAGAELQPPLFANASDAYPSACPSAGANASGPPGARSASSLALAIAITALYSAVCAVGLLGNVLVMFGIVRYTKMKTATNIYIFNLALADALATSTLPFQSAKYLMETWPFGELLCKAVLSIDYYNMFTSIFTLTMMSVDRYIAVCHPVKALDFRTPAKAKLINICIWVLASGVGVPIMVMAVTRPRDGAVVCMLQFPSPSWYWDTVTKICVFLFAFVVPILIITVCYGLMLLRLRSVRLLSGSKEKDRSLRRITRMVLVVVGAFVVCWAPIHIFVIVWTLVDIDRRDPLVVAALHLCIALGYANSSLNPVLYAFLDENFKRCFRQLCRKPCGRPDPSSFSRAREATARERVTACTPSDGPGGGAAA

Mu-type opioid receptor = Mu-type opioid receptor (Homo sapiens, UniProt P35372); assay: Counterscreen for agonists of heterodimerization of the mu 1 (OPRM1) and delta 1 (OPRD1) opioid receptors: Luminescence-based cell-based high throughput dose response assay to identify agonists of OPRM1 homodimerization.; type: functional;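 further: U2OS cells expressing OPRM1 and beta-arrestin as split beta-galactosidase partners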
[14] = molecular target: T8, Apoptotic protease-activating factor 1 (Homo sapiens, UniProt O14727); type: functional
T8 sequence (O14727 whole entry): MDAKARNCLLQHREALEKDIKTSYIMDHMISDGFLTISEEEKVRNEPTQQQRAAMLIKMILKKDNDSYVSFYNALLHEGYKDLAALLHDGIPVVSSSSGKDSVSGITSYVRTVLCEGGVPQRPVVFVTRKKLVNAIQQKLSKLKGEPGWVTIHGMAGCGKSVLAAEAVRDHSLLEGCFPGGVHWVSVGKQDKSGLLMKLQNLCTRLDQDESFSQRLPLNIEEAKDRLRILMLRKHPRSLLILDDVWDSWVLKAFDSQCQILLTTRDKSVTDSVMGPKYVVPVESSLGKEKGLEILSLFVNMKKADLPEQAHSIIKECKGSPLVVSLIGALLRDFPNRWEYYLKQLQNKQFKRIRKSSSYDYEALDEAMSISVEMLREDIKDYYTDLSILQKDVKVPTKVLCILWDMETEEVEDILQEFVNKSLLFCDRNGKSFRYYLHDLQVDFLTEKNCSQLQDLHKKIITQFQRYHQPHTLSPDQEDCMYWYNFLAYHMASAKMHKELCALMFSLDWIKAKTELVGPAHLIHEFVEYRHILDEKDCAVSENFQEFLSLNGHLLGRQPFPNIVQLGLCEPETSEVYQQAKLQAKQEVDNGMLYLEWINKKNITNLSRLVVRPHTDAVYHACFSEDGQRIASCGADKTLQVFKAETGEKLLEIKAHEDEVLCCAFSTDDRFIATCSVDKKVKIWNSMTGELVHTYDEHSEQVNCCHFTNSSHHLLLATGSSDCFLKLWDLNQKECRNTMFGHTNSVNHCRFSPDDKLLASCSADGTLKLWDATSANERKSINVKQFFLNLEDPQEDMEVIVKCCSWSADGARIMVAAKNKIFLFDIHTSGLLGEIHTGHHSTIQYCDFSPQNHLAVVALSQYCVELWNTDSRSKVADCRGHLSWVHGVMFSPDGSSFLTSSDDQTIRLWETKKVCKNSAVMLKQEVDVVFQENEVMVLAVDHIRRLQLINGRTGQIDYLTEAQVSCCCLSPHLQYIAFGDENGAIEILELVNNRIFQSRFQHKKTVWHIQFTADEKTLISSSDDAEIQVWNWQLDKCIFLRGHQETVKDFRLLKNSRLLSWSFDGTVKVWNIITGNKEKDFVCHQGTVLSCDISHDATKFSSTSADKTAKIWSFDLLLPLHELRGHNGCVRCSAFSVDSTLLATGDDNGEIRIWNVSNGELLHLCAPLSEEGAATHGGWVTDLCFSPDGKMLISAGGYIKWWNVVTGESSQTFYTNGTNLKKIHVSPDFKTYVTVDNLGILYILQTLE

[15] = molecular target: T9, Polyadenylate-binding protein 1 (Homo sapiens, UniProt P11940); assay: PABP1 MLLE–PAM2 interaction inhibitors, dose response, miRNA deadenylation inhibitor project, biochemical, fluorescence polarization, Cy5-PAM2 peptide, secondary (AID 602260); type: functional; conditions: read-out: IC50_Mean
T9 sequence (P11940 whole entry): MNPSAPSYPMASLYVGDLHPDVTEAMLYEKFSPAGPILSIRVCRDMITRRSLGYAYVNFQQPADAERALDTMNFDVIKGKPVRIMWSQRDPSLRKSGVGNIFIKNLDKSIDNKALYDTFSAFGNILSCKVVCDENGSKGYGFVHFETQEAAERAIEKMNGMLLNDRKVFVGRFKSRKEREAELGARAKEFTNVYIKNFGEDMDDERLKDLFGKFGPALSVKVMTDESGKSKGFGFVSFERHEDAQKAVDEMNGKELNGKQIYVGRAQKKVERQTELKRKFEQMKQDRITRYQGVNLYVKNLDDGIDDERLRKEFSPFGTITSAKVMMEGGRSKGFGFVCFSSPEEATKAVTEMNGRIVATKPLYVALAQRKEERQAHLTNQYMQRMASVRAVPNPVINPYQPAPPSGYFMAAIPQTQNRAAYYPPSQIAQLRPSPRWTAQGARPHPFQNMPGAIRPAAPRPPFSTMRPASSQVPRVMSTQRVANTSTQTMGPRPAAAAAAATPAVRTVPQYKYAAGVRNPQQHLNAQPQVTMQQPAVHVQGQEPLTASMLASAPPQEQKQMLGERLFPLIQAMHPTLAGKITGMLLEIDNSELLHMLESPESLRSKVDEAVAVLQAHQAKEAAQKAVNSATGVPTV

[16] = molecular target: T9, Polyadenylate-binding protein 1; assay: PABP1 MLLE–PAM2 binding inhibitor potency, dose response, biochemical, fluorescence polarization, FITC-PAM2 peptide (AID 602259); type: functional; conditions: read-out: IC50_Mean
[17] = molecular target: T10, Runt-related transcription factor 1/Core-binding factor subunit beta (Homo sapiens, UniProt Q01196+Q13951); assay: inhibitors of RUNX1 Runt–CBFb-SMMHC binding, biochemical, TR-FRET (AID 1438); type: protein assay
T10 sequence (Q01196 whole entry, the tested form may be a part): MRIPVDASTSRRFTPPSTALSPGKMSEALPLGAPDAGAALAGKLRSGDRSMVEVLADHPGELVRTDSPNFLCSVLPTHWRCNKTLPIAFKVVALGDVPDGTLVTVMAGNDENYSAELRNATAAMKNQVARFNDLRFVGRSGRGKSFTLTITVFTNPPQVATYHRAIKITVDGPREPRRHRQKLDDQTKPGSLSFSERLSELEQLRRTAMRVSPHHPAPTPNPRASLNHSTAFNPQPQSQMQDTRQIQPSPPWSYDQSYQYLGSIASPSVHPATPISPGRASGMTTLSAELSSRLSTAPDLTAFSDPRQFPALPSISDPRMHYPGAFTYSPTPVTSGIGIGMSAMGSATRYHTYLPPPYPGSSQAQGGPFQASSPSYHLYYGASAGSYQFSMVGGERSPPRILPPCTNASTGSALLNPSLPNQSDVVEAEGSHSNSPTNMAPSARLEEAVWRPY
T10 sequence (Q13951 whole entry, the tested form may be a part): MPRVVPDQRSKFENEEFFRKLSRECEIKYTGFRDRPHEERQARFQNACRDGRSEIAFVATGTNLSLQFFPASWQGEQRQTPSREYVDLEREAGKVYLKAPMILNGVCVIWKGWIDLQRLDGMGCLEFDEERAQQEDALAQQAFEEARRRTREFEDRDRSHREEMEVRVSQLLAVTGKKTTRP

[18] = molecular target: T10, Runt-related transcription factor 1/Core-binding factor subunit beta; assay: inhibitors of RUNX1 Runt–CBFb-SMMHC binding, primary screen, biochemical, FRET, Cerulean-Runt, Venus-CBFb-SMMHC, uHTS (AID 1434); type: protein assay;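 further: partner is the CBFb-SMMHC leukemia fusion protein rather than wild-type CBFb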
[19] = molecular target: DNA damage-inducible transcript 3 protein (Mus musculus, UniProt P35639); type: functional, Cricetulus griseus
DNA damage-inducible transcript 3 protein, sequence (P35639 whole entry, the tested form may be a part): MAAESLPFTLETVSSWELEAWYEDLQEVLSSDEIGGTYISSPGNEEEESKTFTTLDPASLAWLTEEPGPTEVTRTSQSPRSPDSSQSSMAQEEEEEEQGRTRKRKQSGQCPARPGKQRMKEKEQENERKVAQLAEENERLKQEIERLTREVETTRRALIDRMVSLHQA

[20] = molecular target: Disintegrin and metalloproteinase domain-containing protein 17 (Homo sapiens, UniProt P78536); assay: exosite inhibitors of ADAM17, dose response, biochemical (AID 743260)
Disintegrin and metalloproteinase domain-containing protein 17, sequence (P78536 whole entry, the tested form may be a part): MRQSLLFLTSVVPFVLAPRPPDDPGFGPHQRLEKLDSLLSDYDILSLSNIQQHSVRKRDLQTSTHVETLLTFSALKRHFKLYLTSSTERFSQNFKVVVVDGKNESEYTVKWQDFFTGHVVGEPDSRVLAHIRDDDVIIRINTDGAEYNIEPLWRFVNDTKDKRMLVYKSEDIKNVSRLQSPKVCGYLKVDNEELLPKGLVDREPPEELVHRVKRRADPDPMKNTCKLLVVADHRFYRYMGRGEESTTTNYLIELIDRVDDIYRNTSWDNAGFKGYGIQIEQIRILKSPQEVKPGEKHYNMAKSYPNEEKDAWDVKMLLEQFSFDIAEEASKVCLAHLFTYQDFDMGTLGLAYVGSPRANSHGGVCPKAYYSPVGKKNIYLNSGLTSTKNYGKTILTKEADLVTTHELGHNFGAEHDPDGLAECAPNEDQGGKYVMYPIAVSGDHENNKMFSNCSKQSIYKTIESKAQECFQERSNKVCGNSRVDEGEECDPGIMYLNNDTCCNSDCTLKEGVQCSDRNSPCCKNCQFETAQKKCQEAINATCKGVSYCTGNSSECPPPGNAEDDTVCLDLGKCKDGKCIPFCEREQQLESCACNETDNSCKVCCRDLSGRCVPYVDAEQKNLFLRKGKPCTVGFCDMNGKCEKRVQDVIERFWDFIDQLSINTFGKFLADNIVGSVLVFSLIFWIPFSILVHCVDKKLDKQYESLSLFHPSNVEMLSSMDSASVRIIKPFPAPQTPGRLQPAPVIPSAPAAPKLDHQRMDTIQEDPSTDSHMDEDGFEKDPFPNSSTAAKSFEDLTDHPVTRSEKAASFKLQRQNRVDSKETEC

[21] = ADAM10 protease inhibitors, dose response, selectivity assay for ADAM17 exosite inhibitor project, biochemical, FRET peptide substrate, recombinant human ADAM10 (AID 743259);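 further: ADAM10 enzyme cleaving a FRET peptide substrate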

Mucolipin-3, sequence (Q8TDD5 whole entry): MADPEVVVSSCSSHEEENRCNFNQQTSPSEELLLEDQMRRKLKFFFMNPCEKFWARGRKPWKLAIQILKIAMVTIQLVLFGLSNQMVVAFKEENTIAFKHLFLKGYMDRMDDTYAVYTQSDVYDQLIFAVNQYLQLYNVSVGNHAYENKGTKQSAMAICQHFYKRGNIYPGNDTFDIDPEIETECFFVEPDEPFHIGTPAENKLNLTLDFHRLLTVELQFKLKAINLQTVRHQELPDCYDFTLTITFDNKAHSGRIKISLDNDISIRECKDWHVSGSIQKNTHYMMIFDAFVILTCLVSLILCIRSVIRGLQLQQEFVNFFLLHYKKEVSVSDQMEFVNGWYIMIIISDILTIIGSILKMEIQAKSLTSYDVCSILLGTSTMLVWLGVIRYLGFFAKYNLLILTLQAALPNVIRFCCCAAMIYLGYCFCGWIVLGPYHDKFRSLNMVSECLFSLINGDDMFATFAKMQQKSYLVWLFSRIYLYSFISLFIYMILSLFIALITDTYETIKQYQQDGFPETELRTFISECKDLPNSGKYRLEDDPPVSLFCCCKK

COCc1nnc(SCC(=O)NCc2ccccc2)n1-c1ccccc1
EC50 (Mucolipin-3): > 29.9 µM (not active)
EC50 (Ion channel NompC): > 29.9 µM (inactive)

Cc1cc(OC(=O)c2ccco2)c2c(C)cc(=O)oc2c1
IC50 (Coagulation factor XII): > 50 µM (inconclusive)

O=C(Nc1cccc(S(=O)(=O)N2CCOCC2)c1)c1ccc(N2CCCC2=O)cc1
IC50 (Cannabinoid receptor 2 [1]): > 32 µM (inactive)
IC50 (Cannabinoid receptor 1 [2]): > 32 µM (inactive)
EC50 [3]: 1.37 µM (active)
EC50 (Cannabinoid receptor 1 [4]): > 32 µM (inactive)
IC50 [5]: > 32 µM (inactive)
EC50 [6]: > 32 µM (inactive)
EC50 (Cannabinoid receptor 2 [7]): > 32 µM (inactive)

CN(C)CCCN(C(=O)c1ccc(S(=O)(=O)N2CCc3ccccc3C2)cc1)c1nc2ccc(F)cc2s1
EC50 [8]: 0.596 µM (active)
CC50 [9]: 31.1 µM (active)
EC50 [10]: > 100 µM (inactive)
IC50 [11]: > 20 µM (inactive)
EC50 [12]: > 92.5 µM (inactive)
EC50 [13]: > 92.5 µM (inactive)
EC50 (Mu-type opioid receptor): 3.28 µM (active)
IC50 [14]: 47.9 µM (active)

N#Cc1cc2c(=O)n3ccccc3nc2n(Cc2ccco2)/c1=N/C(=O)c1ccco1
IC50 [15]: > 66 µM (inactive)
IC50 [16]: > 66 µM (inactive)
IC50 [17]: 56.1 µM (inactive)
IC50 [18]: 1.67 µM (active)

Sc1nnc(C2CCCCC2)n1/N=C/C=C/c1ccccc1
Absolute IC50 (CHOP) [19]: 10 µM
IC50 [20]: > 69.5 µM (inactive)
IC50 [21]: 13.7 µM (inactive)
